Results as given in patent US20260022142A1, “MACROCYCLIC IMMUNOMODULATORS” (Bristol-Myers Squibb Company, priority 2022, published 2026).
Bridge positions count the residues as written; N and C are the ends. Square brackets hold non-standard residues; d marks the D form. Peptide text beside a SMILES is read from it. * marks the point of attachment. ξ: configuration not given here. Phe(4-COOH) = N[C@@H](Cc1ccc(C(=O)O)cc1)C(=O)O; Bip = N[C@@H](Cc1ccc(-c2ccccc2)cc1)C(=O)O; Phe(3-Me) = Cc1cccc(C[C@H](N)C(=O)O)c1; Ala(cPr) = N[C@@H](CC1CC1)C(=O)O; 4Pal = N[C@@H](Cc1ccncc1)C(=O)O; Cha = N[C@@H](CC1CCCCC1)C(=O)O; Cit = NC(=O)NCCC[C@H](N)C(=O)O; Thr(3ξ) = CC(O)[C@H](N)C(=O)O; hSer = N[C@@H](CCO)C(=O)O; Carboxymethyl = O=C(O)C*; Orn = NCCC[C@H](N)C(=O)O; Pra = C#CC[C@H](N)C(=O)O; Aun = NCCCCCCCCCCC(=O)O; Dab = NCC[C@H](N)C(=O)O; Dap = NC[C@H](N)C(=O)O; AEEA = NCCOCCOCC(=O)O; Ac3c = NC1(C(=O)O)CC1; ξC = NC(CS)C(=O)O

Molecular target: T1, PD-1/PD-L1 interaction (PE-labeled human PD-L1-Ig binding to Jurkat cell line over-expressing human PD-1) (Homo sapiens, UniProt Q15116)
T1 construct: expressed in transfected cells; host or cells: Jurkat
Test: Jurkat-PD-1 Cell Binding High-Content Screening Assay (CBA)
Type: cell-based
Settings: Jurkat cell line over-expressing human PD-1; PE-labeled PD-L1-Ig 20 nM final; read-out: Jurkat hPD1-PDL1 IC50
Procedure, shortened: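 Binding of fluorescent PD-L1-Ig (phycoerythrin on Ig tag, 20 nM final, 1 h) measured by high-content imaging of fixed, Hoechst-counterstained Jurkat-hPD-1 cells. Compound added 2 h at 37° C beforehand, in DMEM with 10% fetal calf serum.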

T1 sequence (Q15116 25-288): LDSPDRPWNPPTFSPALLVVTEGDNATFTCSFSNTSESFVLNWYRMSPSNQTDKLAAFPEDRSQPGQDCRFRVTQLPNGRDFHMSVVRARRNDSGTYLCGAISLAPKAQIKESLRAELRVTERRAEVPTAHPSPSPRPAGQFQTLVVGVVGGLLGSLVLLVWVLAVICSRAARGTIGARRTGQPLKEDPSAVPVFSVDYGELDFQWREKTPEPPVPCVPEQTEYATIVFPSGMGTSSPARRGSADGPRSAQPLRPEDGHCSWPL

| SMILES | IC50 |
| --- | --- |
| Cc1cccc(C[C@@H]2NC(=O)[C@H](CC(=O)O)NC(=O)[C@H](Cc3ccc(OCC(=O)O)cc3)NC(=O)[C@H](CN)NC(=O)CSC[C@@H](C(=O)NCCOCCOCC(=O)NCCCCCCCCCCC(=O)O)NC(=O)[C@H](CCCN)NC(=O)[C@H](C(C)C)NC(=O)[C@H](CC3CCCCC3)NC(=O)[C@H](CCN)NC(=O)[C@@H](CC(C)C)NC(=O)[C@H](CCCN)NC(=O)[C@H](C(C)C)NC(=O)[C@H](Cc3ccc(-c4ccccc4)cc3)NC(=O)[C@H](C(C)C)NC2=O)c1 [Compound 2567] ({CH2CO}-[Dap]Y(Carboxymethyl)D[Phe(3-Me)]V[Bip]V[Orn][dL][Dab][Cha]V[Orn]C[AEEA][Aun]-OH; thioether N-14) | 5.3 nM |
| CC(C)C[C@H]1NC(=O)[C@H](CCCN)NC(=O)[C@H](C(C)C)NC(=O)[C@H](Cc2ccc(-c3ccccc3)cc2)NC(=O)[C@H](C(C)C)NC(=O)[C@H](Cc2c[nH]c3ccccc23)NC(=O)[C@H](CC(=O)O)NC(=O)[C@H](Cc2ccc(OCC(=O)O)cc2)NC(=O)[C@H](CN)NC(=O)CSCC(C(=O)N[C@H](CCCCN)C(=O)NCCCCCCCCCCC(=O)O)NC(=O)[C@H]([C@@H](C)O)NC(=O)[C@H](C(C)C)NC(=O)[C@H](CC2CCCCC2)NC(=O)[C@H](Cc2cnc[nH]2)NC1=O (stereo partly drawn) [Compound 1120] ({CH2CO}-[Dap]Y(Carboxymethyl)DWV[Bip]V[Orn][dL]H[Cha]VT[ξC][dK][Aun]-OH; thioether N-14) | 40.9 nM |
| CC(C)C[C@H]1NC(=O)[C@H](CCCN)NC(=O)[C@H](C(C)C)NC(=O)[C@H](Cc2ccc(-c3ccccc3)cc2)NC(=O)[C@H](C(C)C)NC(=O)[C@H](Cc2c[nH]c3ccccc23)NC(=O)[C@H](CC(=O)O)NC(=O)[C@H](Cc2ccc(OCC(=O)O)cc2)NC(=O)[C@H](CN)NC(=O)CSC[C@@H](C(=O)N[C@@H](CCN)C(=O)NCCCCCCCCCCC(=O)O)NC(=O)[C@H](CN)NC(=O)[C@H](C(C)O)NC(=O)[C@H](CC2CCCCC2)NC(=O)[C@H](CCN)NC1=O (stereo partly drawn) [Compound 3647] ({CH2CO}-[Dap]Y(Carboxymethyl)DWV[Bip]V[Orn][dL][Dab][Cha][Thr(3ξ)][Dap]C[Dab][Aun]-OH; thioether N-14) | 27.7 nM |
| Cc1cccc(C[C@@H]2NC(=O)[C@H](CC(=O)O)NC(=O)[C@H](Cc3ccc(OCC(=O)O)cc3)NC(=O)[C@H](Cc3ccc(OCC(=O)O)cc3)NC(=O)CSC[C@@H](C(=O)NC3(C(=O)NCCOCCOCC(=O)NCCCCCCCCCCC(=O)O)CC3)NC(=O)[C@H](CCCN)NC(=O)[C@H](C(C)C)NC(=O)[C@H](CC3CCCCC3)NC(=O)[C@H](CCN)NC(=O)[C@@H](CC(C)C)NC(=O)[C@H](CCCN)NC(=O)[C@H](Cc3ccc(O)cc3)NC(=O)[C@H](Cc3ccc(-c4ccccc4)cc3)NC(=O)[C@H](Cc3ccc(O)cc3)NC2=O)c1 [Compound 2078] ({CH2CO}-Y(Carboxymethyl)Y(Carboxymethyl)D[Phe(3-Me)]Y[Bip]Y[Orn][dL][Dab][Cha]V[Orn]C[Ac3c][AEEA][Aun]-OH; thioether N-14) | 3.9 nM |
| Cc1cccc(C[C@@H]2NC(=O)[C@H](CC(=O)O)NC(=O)[C@H](Cc3ccc(OCC(=O)O)cc3)NC(=O)[C@H](CCCNC(=N)N)NC(=O)CSC[C@@H](C(=O)N[C@@H](CCN)C(=O)NCCCCCCCCCCC(=O)O)NC(=O)[C@H](CO)NC(=O)[C@H](C(C)C)NC(=O)[C@H](CC3CCCCC3)NC(=O)[C@H](CCN)NC(=O)[C@@H](CC(C)C)NC(=O)[C@H](CCCN)NC(=O)[C@H](Cc3ccc(OCC(=O)O)cc3)NC(=O)[C@H](Cc3ccc(-c4ccccc4)cc3)NC(=O)[C@H](Cc3ccc(OCC(=O)O)cc3)NC2=O)c1 [Compound 2083] ({CH2CO}-RY(Carboxymethyl)D[Phe(3-Me)]Y(Carboxymethyl)[Bip]Y(Carboxymethyl)[Orn][dL][Dab][Cha]VSC[Dab][Aun]-OH; thioether N-14) | 8.3 nM |
| Cc1cccc(C[C@@H]2NC(=O)[C@H](CC(=O)O)NC(=O)[C@H](Cc3ccc(OCC(=O)O)cc3)NC(=O)[C@H](CN)NC(=O)CSC[C@@H](C(=O)N[C@@H](CCN)C(=O)NCCCCCCCCCCC(=O)O)NC(=O)[C@H]([C@@H](C)O)NC(=O)[C@H](C(C)C)NC(=O)[C@H](CC3CCCCC3)NC(=O)[C@H](CCN)NC(=O)[C@@H](CC(C)C)NC(=O)[C@H](CCCN)NC(=O)[C@H](Cc3ccc(O)cc3)NC(=O)[C@H](Cc3ccc(-c4ccccc4)cc3)NC(=O)[C@H](CC(C)C)NC2=O)c1 [Compound 2737] ({CH2CO}-[Dap]Y(Carboxymethyl)D[Phe(3-Me)]L[Bip]Y[Orn][dL][Dab][Cha]VTC[Dab][Aun]-OH; thioether N-14) | 28.8 nM |
| Cc1cccc(C[C@@H]2NC(=O)[C@H](CC(=O)O)NC(=O)[C@H](Cc3ccc(OCC(=O)O)cc3)NC(=O)[C@H](CCCNC(=N)N)NC(=O)CSC[C@@H](C(=O)N[C@H](CC(N)=O)C(=O)NCCCCCCCCCCC(=O)O)NC(=O)[C@H](CCCN)NC(=O)[C@H](C(C)C)NC(=O)[C@H](CC3CCCCC3)NC(=O)[C@H](CCN)NC(=O)[C@@H](CC(C)C)NC(=O)[C@H](CCCN)NC(=O)[C@H](CCCNC(N)=O)NC(=O)[C@H](Cc3ccc(-c4ccccc4)cc3)NC(=O)[C@H](C(C)C)NC2=O)c1 [Compound 3311] ({CH2CO}-RY(Carboxymethyl)D[Phe(3-Me)]V[Bip][Cit][Orn][dL][Dab][Cha]V[Orn]C[dN][Aun]-OH; thioether N-14) | 4.4 nM |
| Cc1cccc(C[C@@H]2NC(=O)[C@H](CC(=O)O)NC(=O)[C@H](Cc3ccc(OCC(=O)O)cc3)NC(=O)[C@H](CCCNC(=N)N)NC(=O)CSC[C@@H](C(=O)NC3(C(=O)NCCCCCCCCCCC(=O)O)CC3)NC(=O)[C@H]([C@@H](C)O)NC(=O)[C@H](C(C)C)NC(=O)[C@H](CC3CC3)NC(=O)[C@H](CCN)NC(=O)[C@@H](CC(C)C)NC(=O)[C@H](CCCN)NC(=O)[C@H](Cc3ccc(OCC(=O)O)cc3)NC(=O)[C@H](Cc3ccc(-c4ccccc4)cc3)NC(=O)[C@H](Cc3ccc(OCC(=O)O)cc3)NC2=O)c1 [Compound 2163] ({CH2CO}-RY(Carboxymethyl)D[Phe(3-Me)]Y(Carboxymethyl)[Bip]Y(Carboxymethyl)[Orn][dL][Dab][Ala(cPr)]VTC[Ac3c][Aun]-OH; thioether N-14) | 93 nM |

Continued, values first:

| IC50 | SMILES |
| --- | --- |
| 11.5 nM | CC(C)C[C@H]1NC(=O)[C@H](CCCN)NC(=O)[C@H](C(C)C)NC(=O)[C@H](Cc2ccc(-c3ccccc3)cc2)NC(=O)[C@H](C(C)C)NC(=O)[C@H](Cc2c[nH]c3ccccc23)NC(=O)[C@H](CC(=O)O)NC(=O)[C@H](Cc2ccc(OCC(=O)O)cc2)NC(=O)[C@H](Cc2ccc(OCC(=O)O)cc2)NC(=O)CSC[C@@H](C(=O)N[C@@H](CCN)C(=O)NCCOCCOCC(=O)NCCCCCCCCCCC(=O)O)NC(=O)[C@H](CN)NC(=O)[C@H](C(C)C)NC(=O)[C@H](CC2CCCCC2)NC(=O)[C@H](CCN)NC1=O [Compound 2554] ({CH2CO}-Y(Carboxymethyl)Y(Carboxymethyl)DWV[Bip]V[Orn][dL][Dab][Cha]V[Dap]C[Dab][AEEA][Aun]-OH; thioether N-14) |
| 14.8 nM | C#CC[C@H](NC(=O)COCCOCCNC(=O)[C@H](CCN)NC(=O)[C@@H]1CSCC(=O)N[C@@H](Cc2ccncc2)C(=O)N[C@@H](Cc2ccc(OCC(=O)O)cc2)C(=O)N[C@@H](CC(=O)O)C(=O)N[C@@H](Cc2c[nH]c3ccccc23)C(=O)N[C@@H](C(C)C)C(=O)N[C@@H](Cc2ccc(-c3ccccc3)cc2)C(=O)N[C@@H]([C@@H](C)CC)C(=O)N[C@@H](CCCN)C(=O)N[C@H](CC(C)C)C(=O)N[C@@H](CCN)C(=O)N[C@@H](CC(C)C)C(=O)N[C@@H](C(C)C)C(=O)N[C@@H]([C@@H](C)O)C(=O)N1)C(=O)N[C@@H](CCCNC(=N)N)C(=O)NCCCCCCCCCCC(=O)O [Compound 1197] ({CH2CO}-[4Pal]Y(Carboxymethyl)DWV[Bip]I[Orn][dL][Dab]LVTC[Dab][AEEA][Pra]R[Aun]-OH; thioether N-14) |
| 27 nM | Cc1cccc(C[C@@H]2NC(=O)[C@H](CC(=O)O)NC(=O)[C@H](Cc3ccc(OCC(=O)O)cc3)NC(=O)[C@H](CN)NC(=O)CSC[C@@H](C(=O)N[C@@H](CCN)C(=O)NCCOCCOCC(=O)NCCCCCCCCCCC(=O)O)NC(=O)[C@H](C(C)O)NC(=O)[C@H](Cc3ccc(O)cc3)NC(=O)[C@H](CC3CCCCC3)NC(=O)[C@H](CCN)NC(=O)[C@@H](CC(C)C)NC(=O)[C@H](CCCN)NC(=O)[C@H](C(C)C)NC(=O)[C@H](Cc3ccc(-c4ccccc4)cc3)NC(=O)[C@H](C(C)C)NC2=O)c1 (stereo partly drawn) [Compound 2585] ({CH2CO}-[Dap]Y(Carboxymethyl)D[Phe(3-Me)]V[Bip]V[Orn][dL][Dab][Cha]Y[Thr(3ξ)]C[Dab][AEEA][Aun]-OH; thioether N-14) |
| 16.2 nM | Cc1cccc(C[C@@H]2NC(=O)[C@H](CC(=O)O)NC(=O)[C@H](Cc3ccc(OCC(=O)O)cc3)NC(=O)[C@H](CN)NC(=O)CSC[C@@H](C(=O)N[C@@H](CCN)C(=O)NCCCCCCCCCCC(=O)O)NC(=O)[C@H](CCO)NC(=O)[C@H](C(C)C)NC(=O)[C@H](CC3CCCCC3)NC(=O)[C@H](CCN)NC(=O)[C@@H](CC(C)C)NC(=O)[C@H](CCCN)NC(=O)[C@H](Cc3ccc(OCC(=O)O)cc3)NC(=O)[C@H](Cc3ccc(-c4ccccc4)cc3)NC(=O)[C@H](Cc3ccc(OCC(=O)O)cc3)NC2=O)c1 [Compound 2101] ({CH2CO}-[Dap]Y(Carboxymethyl)D[Phe(3-Me)]Y(Carboxymethyl)[Bip]Y(Carboxymethyl)[Orn][dL][Dab][Cha]V[hSer]C[Dab][Aun]-OH; thioether N-14) |
| 24.5 nM | CC(C)C[C@H]1NC(=O)[C@H](CCCN)NC(=O)[C@H](C(C)C)NC(=O)[C@H](Cc2ccc(-c3ccccc3)cc2)NC(=O)[C@H](C(C)C)NC(=O)[C@H](Cc2c[nH]c3ccccc23)NC(=O)[C@H](CC(=O)O)NC(=O)[C@H](Cc2ccc(C(=O)O)cc2)NC(=O)[C@H](Cc2ccc(OCC(=O)O)cc2)NC(=O)CSC[C@@H](C(=O)NCC(=O)NCCOCCOCC(=O)N[C@@H](CCCN)C(=O)NCCCCCCCCCCC(=O)O)NC(=O)[C@H](CCCN)NC(=O)[C@H](C(C)C)NC(=O)[C@H](CC2CCCCC2)NC(=O)[C@H](CC(N)=O)NC1=O [Compound 3206] ({CH2CO}-Y(Carboxymethyl)[Phe(4-COOH)]DWV[Bip]V[Orn][dL]N[Cha]V[Orn]CG[AEEA][Orn][Aun]-OH; thioether N-14) |
